Consider one compound from patent publication US6559154B2 (priority 2000, dated 2003).

For data set [1] the following is noted: cited from earlier work.
For the next data set, the system named is rats. The note with it: rat, in vivo.

For the compound `N=C1NC(O)C2C3OC4(O)OC(C(O)C2(N1)C4O)C3(O)CO` (stereo not shown) [TTX, octahydro-12-(hydroxymethyl)-2-imino-5,9:7,10a-dimethano-10aH-(1,3)dioxocino(6,5-d)-pyrimidine-4,7,10,11, 12-pentol], in data set [1], the “solubility in acidic aqueous solution” value is on record as “soluble”, the “solubility in organic solvents” value was “not soluble” and the solubility in water result is listed as “only slightly soluble”. In the data set on rats, this compound came in with an effective dosage of 2.5 µg/mg.
